Like-named read-outs stand apart in the source and are kept apart here.
What was measured:
Salmonella Napoli = experiment: Antibacterial assay, Salmonella Napoli; format: cell-based; conditions: even at the highest concentration tested (80 µM), 6 h at 37 °C
Text: (§1) The monophasic variant of Salmonella Typhimurium, Salmonella Napoli, and Campylobacter jejuni were isolated by the Laboratory of Microbiological Food Control—Department of Food Microbiology of the Istituto Zooprofilattico Sperimentale del Mezzogiorno in Portici (Naples, Italy) in raw and processed foodstuffs of animal origin. Specifically, the monophasic variant of S. Typhimurium and S. Napoli were isolated from bivalve mollusks, while C. jejuni was isolated from poultry meat. Bacterial cells were cultured at 37 °C in the appropriate culture media (S. Typhimurium and S. Napoli in buffered peptone water (Thermo Fisher, Milan, Italy) and C. jejuni in Bolton Broth (Oxoid, Madrid, Spain)) until collection and then diluted in fresh broth to a final concentration of 1.5 × 10^3 colony forming units (CFUs)/mL. Thereafter, peptide stock solutions in DMSO were added to the bacterial suspension at the same concentrations used in the virucidal assays (40 and 80 µM) and incubated at 37 °C for 6 h. Samples containing only cell suspension and DMSO were used as controls. […]

[1] = pH 2; cited from earlier work
Experimental: In this context, to acquire important information on how the conformational properties of peptides might influence the structure–function relationships and their distinct membrane interaction profiles, the propensity of the new peptides, RiLK30 and AVP2, to adopt a defined secondary structure and to undergo conformational changes were examined by circular dichroism and fluorescence spectroscopy. These analyses were performed in the presence of a negatively charged SDS that is commonly used as a biomimetic membrane model to study the structural features of membranotropic molecules. In previous ...

Campylobacter jejuni = format: cell-based; conditions: peptide 40 and 80 µM, 6 h at 37 °C
Text: as §1

[2] = test system: Hepatitis A virus (HAV) strain HM-175; experiment: Virucidal effect of peptides on HAV (residual infectivity by TCID50 titration on Frp3 cells); format: cell-based; conditions: for Viral Titre after Treatment: titration on Frp3 cells; for Viral Titre after Treatment / LRV (log reduction value): mean ± SD, triplicate
Text: (§2) Murine norovirus strain 1 (MNV-1) was used as a surrogate for human norovirus (NoV). The virus was replicated in RAW 264.7 cells (murine macrophage cell line) cultured in Dulbecco’s modified Eagle’s medium (DMEM) supplemented with 1% glutamine, 1% non-essential amino acids, and 2% fetal bovine serum (FBS). Hepatitis A virus (HAV) strain HM-175 was replicated in Frp3 cells (non-human primate cell line derived from fetal kidney) cultured in minimum essential medium (MEM) with Earle’s salts supplemented with 1% glutamine, 2% non-essential amino acids, and 2% FBS. Both viruses were incubated in 5% CO2 at 37 °C. All cell culture media were provided by EuroClone (Milan, Italy). The viral suspensions were prepared by freeze and thaw lysis (1 cycle for MNV-1 and 3 cycles for HAV) of infected monolayers, clarified using low-speed centrifugation (800× g) to remove residual cell debris, then divided in aliquots, and stored at −80 °C until use.
(§3) Solutions 40 µM and 80 µM of each peptide of the panel (RiLK1, RiLK3, RiLK30, 1018-K6, MTP1, and AVP2) were chosen for the virucidal tests. HAV and MNV-1 were assayed at a concentration of 4.7 ± 0.2 log TCID50/mL and 4.5 ± 0.2 log TCID50/mL, respectively. The suspensions containing the peptides and viruses were incubated for 1 h at room temperature (RT,20 ± 2 °C) and 4 °C. These temperatures were chosen to simulate the use of sanitizing solutions in food production/processing environments. Residual viral infectivity was evaluated by titration (TCID50/mL) on Frp3 cells for HAV and on RAW 264.7 cells for MNV-1. Untreated HAV and MNV-1 suspensions and 40 µM and 80 µM AMP solutions, incubated at the same conditions, were used as controls. Each treatment condition was assayed in triplicate. For titration, 100 µL of serial tenfold dilutions of each sample were assayed in 24-well tissue culture plates containing 24–48 h cell monolayers and incubated for 1 h in 5% CO2 at 37 °C. After that, the wells were washed twice with 200 µL of PBS, and 500 µL of DMEM/MEM, supplemented with 2% of FBS, were was added to each well; MNV-1 and HAV incubations were carried for up to 6 days and 14 days, respectively, in 5% CO2 at 37 °C with daily visual inspection to determine the cytopathic effect. The virucidal efficacy of AMPs was estimated by comparing the titers of treated and untreated viral suspensions.
(§4) For each treatment, the average and standard deviation of the triplicate analyses were calculated. The virucidal effects of AMPs was assessed by calculating the log reduction value (LRV), i.e., the difference between the infectious titer (log-transformed) of untreated versus treated samples. The statistical significance of differences between treated and untreated samples was determined through one-way analysis of variance (ANOVA) with Bonferroni post hoc comparisons, with a significance level of p < 0.05 (GraphPad Prism v9.5.0, software San Diego, CA, USA).

[3] = test system: Murine norovirus strain 1 (MNV-1); format: cell-based; conditions: for Viral Titre after Treatment: titration on RAW 264.7 cells; for Viral Titre after Treatment / LRV (log reduction value): mean ± SD, triplicate
Text: as §2, §3, §4

[4] = HAV + peptide 40 µM, 1 h at RT (20 ± 2 °C)
[5] = HAV + peptide 80 µM, 1 h at RT (20 ± 2 °C)
[6] = MNV-1 + peptide 40 µM, 1 h at 4 °C
[7] = MNV-1 + peptide 40 µM, 1 h at RT (20 ± 2 °C)
[8] = MNV-1 + peptide 80 µM, 1 h at RT (20 ± 2 °C)

Substance: KVSGVLFGTGLWVAL-NH2 [MTP1, previously designed 15-residue antimicrobial peptide, C-terminally amidated]
- bactericidal activity (growth inhibition on selective plates) (Salmonella Napoli): no detectable killing effects
- structural stability [1]: high structural stability
- inhibitory activity against Campylobacter jejuni (in words) (Campylobacter jejuni): did not display any inhibitory activity
- Viral Titre after Treatment ([2]; HAV 4.7 ± 0.2 log TCID50/mL + peptide 80 µM, 1 h at 4 °C): 3.8 ± 0.2 logTCID50/mL
- Viral Titre after Treatment ([2]; HAV + peptide 40 µM, 1 h at 4 °C): 3.6 ± 0.3 logTCID50/mL
- LRV (log reduction value) ([2]; HAV + peptide 40 µM, 1 h at 4 °C, untreated minus treated titre): 1.1 ± 0.2 logTCID50/mL
- LRV (log reduction value) [2, 4]: 1.5 ± 0.4 logTCID50/mL
- Viral Titre after Treatment [2, 4]: 3.2 ± 0.2 logTCID50/mL
- LRV (log reduction value) ([2]; HAV + peptide 80 µM, 1 h at 4 °C, untreated minus treated titre): 0.9 ± 0.4 logTCID50/mL
- LRV (log reduction value) [2, 5]: 1.2 ± 0.3 logTCID50/mL
- Viral Titre after Treatment [2, 5]: 3.5 ± 0.1 logTCID50/mL
- decrease of HAV infectious titer ([2]; maximum reduction, corresponding to the highest LRV): up to 97.3%
- virucidal activity toward MNV-1 (in words) ([3]; 40 and 80 µM, 4 °C and RT): no significant effects
- Viral Titre after Treatment ([3]; MNV-1 4.5 ± 0.2 log TCID50/mL + peptide 80 µM, 1 h at 4 °C): 4.5 ± 0.1 logTCID50/mL
- LRV (log reduction value) [3, 6]: 0.1 ± 0.3 logTCID50/mL
- Viral Titre after Treatment [3, 6]: 4.4 ± 0.1 logTCID50/mL
- LRV (log reduction value) [3, 7]: 0 ± 0.4 logTCID50/mL
- Viral Titre after Treatment [3, 7]: 4.5 ± 0.2 logTCID50/mL
- LRV (log reduction value) ([3]; MNV-1 + peptide 80 µM, 1 h at 4 °C): 0 ± 0.3 logTCID50/mL
- LRV (log reduction value) [3, 8]: 0 ± 0.4 logTCID50/mL
- Viral Titre after Treatment [3, 8]: 4.5 ± 0.2 logTCID50/mL

Source: publication PMC11124387, “A Reliable Multifaceted Solution against Foodborne Viral Infections: The Case of RiLK1 Decapeptide” (Molecules, 2024)
